This note sets out measurements from patent US10603369B2, “Combination vaccines with lower doses of antigen and/or adjuvant” (GlaxoSmithKline Biologicals SA, priority 2011, dated 2020).

Usually solubility stands for the dissolved amount per volume that the medium holds.

Series [1] can be described thus: Adsorption of TLR agonist to aluminium hydroxide adjuvant. The class given is physicochemical.
The nature of a further series: physchem. Conditions: water.

Molecules are shown by their SMILES. In brackets after ≈: the same amount, converted by molar mass.

Regarding `Cc1ccc2c(c1)nc(N)c1ncc(CCc3ccc(OCCOCCOCCC(F)(F)P(=O)(O)O)cc3C)cc12` [compound T], the “adsorption to aluminium hydroxide” value in series [1] is on record as “adsorbs well”. Moreover, in “physchem”, the solubility was ~4000 µg/mL (≈ 6.78 mM).
